Experimental data as given in ChEMBL document CHEMBL1149766, “Quantitative structure activity relationship studies on thiourea analogues as influenza virus neuraminidase inhibitors” (Eur J Med Chem, 2008).

Biological target: Neuraminidase (Influenza A virus, UniProt B4URF0)
Test: Inhibition of Influenza A virus neuraminidase activity

Neuraminidase, sequence (B4URF0 whole entry): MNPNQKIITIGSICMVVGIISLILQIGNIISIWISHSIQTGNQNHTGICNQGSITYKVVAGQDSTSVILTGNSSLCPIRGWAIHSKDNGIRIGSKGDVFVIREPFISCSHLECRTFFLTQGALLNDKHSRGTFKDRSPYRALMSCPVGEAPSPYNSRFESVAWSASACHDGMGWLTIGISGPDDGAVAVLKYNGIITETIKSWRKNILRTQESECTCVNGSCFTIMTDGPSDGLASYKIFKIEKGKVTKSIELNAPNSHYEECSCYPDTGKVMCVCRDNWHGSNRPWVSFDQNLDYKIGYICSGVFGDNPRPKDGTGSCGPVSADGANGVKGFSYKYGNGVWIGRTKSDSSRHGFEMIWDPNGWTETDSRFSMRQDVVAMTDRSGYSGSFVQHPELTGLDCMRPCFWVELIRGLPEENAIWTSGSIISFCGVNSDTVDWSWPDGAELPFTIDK

Compound	IC50 [µM]
COc1cc(Cl)nc(NC(=S)NC(=O)c2ccc(Cl)nc2)n1	> 20
CC(C)(C)NC(=O)NC(=S)NC(=O)c1c(F)cccc1F	1.43
Cc1cc(O)nc(NC(=S)NC(=O)c2ccc(-c3ccc([N+](=O)[O-])cc3)o2)n1	0.36
COc1cc(C)nc(NC(=S)NC(=O)c2ccc(Cl)nc2)n1	> 20
COc1cc(C)nc(NC(=S)NC(=O)c2ccc(-c3ccccc3Cl)o2)n1	> 20
COc1cc(OC)nc(NC(=S)NC(=O)c2ccc(-c3ccccc3Cl)o2)n1	1.77
CC(C)(C)NC(=O)NC(=S)NC(=O)c1ccccc1	1.79
COc1cc(C)nc(NC(=S)NC(=O)c2ccc(-c3ccc([N+](=O)[O-])cc3)o2)n1	1.22
CCOc1cc(Cl)nc(NC(=S)NC(=O)c2ccc(-c3ccccc3Cl)o2)n1	> 20
CCOc1cc(OCC)nc(NC(=S)NC(=O)c2cccnc2Cl)n1	> 20
CC(C)(C)NC(=O)NC(=S)NC(=O)c1ccc(-c2ccc([N+](=O)[O-])cc2)o1	1.3
COc1cc(OC)nc(NC(=S)NC(=O)c2cccnc2)n1	> 20
COc1cc(Cl)nc(NC(=S)NC(=O)c2cccnc2Cl)n1	2.59
Cc1cc(O)nc(NC(=S)NC(=O)c2ccc(Cl)nc2)n1	8.58
CC(C)[C@H](C(=O)NC(=S)NC(=O)NC(C)(C)C)c1ccc(Cl)cc1	1.35
CCOc1cc(C)nc(NC(=S)NC(=O)c2ccc(-c3ccc([N+](=O)[O-])cc3)o2)n1	2.3
CCOc1cc(C)nc(NC(=S)NC(=O)c2ccc(-c3ccccc3Cl)o2)n1	1.65
CC(C)(C)NC(=O)NC(=S)NC(=O)COc1ccc(Cl)cc1Cl	1.67
Cc1cc(C)nc(NC(=S)NC(=O)c2cccnc2Cl)n1	7.19
CC(C)(C)NC(=O)NC(=S)NC(=O)c1ccc(-c2ccccc2Cl)o1	1.42

Compound	IC50 [µM]
COc1cc(OC)nc(NC(=S)NC(=O)c2cnc(Cl)c(Cl)c2)n1	18.5
O=C(NC(=S)Nc1nc(Cl)cc(Cl)n1)c1ccc(-c2ccccc2Cl)o1	14.5
CCOc1cc(OCC)nc(NC(=S)NC(=O)c2ccc(-c3ccc([N+](=O)[O-])cc3)o2)n1	> 20
CCOc1cc(OCC)nc(NC(=S)NC(=O)c2ccc(Cl)nc2)n1	> 20
Cc1cc(O)nc(NC(=S)NC(=O)c2ccc(-c3ccccc3Cl)o2)n1	0.32
COC(=O)NC(=S)NC(=O)NC(C)(C)C	1.83
CCOc1cc(OCC)nc(NC(=S)NC(=O)c2ccc(-c3ccccc3Cl)o2)n1	0.08
CCOc1cc(Cl)nc(NC(=S)NC(=O)c2cccnc2Cl)n1	> 20
COc1cc(Cl)nc(NC(=S)NC(=O)c2ccc(-c3ccccc3Cl)o2)n1	1.29
CC(C)(C)NC(=O)NC(=S)NC(=O)[C@H]1[C@H](C=C(Cl)Cl)C1(C)C	0.26
CC(C)C(C(=O)NC(=S)Nc1nc(Cl)cc(Cl)n1)c1ccc(Cl)cc1 (stereo not given)	> 20
COc1cc(OC)nc(NC(=S)NC(=O)C2C(/C=C(\Cl)C(F)(F)F)C2(C)C)n1 (stereo not given)	0.97
CC(C)(C)NC(=O)NC(=S)NC(=O)[C@@H]1[C@H](/C=C(\Cl)C(F)(F)F)C1(C)C	0.51
COc1cc(OC)nc(NC(=S)NC(=O)COc2ccc(Cl)cc2Cl)n1	1.89
Cc1cc(C)nc(NC(=S)NC(=O)c2ccc(Cl)cc2F)n1	1.36
Cc1cc(C)nc(NC(=S)NC(=O)c2ccccc2)n1	2.1
COc1cc(Cl)nc(NC(=S)NC(=O)c2ccc(Cl)cc2F)n1	5.1
O=C(NC(=S)Nc1nc(Cl)cc(Cl)n1)c1ccc(-c2ccc([N+](=O)[O-])cc2)o1	1.66
Cc1cc(C)nc(NC(=S)NC(=O)C2C(/C=C(\Cl)C(F)(F)F)C2(C)C)n1 (stereo not given)	0.58
CCOc1cc(OCC)nc(NC(=S)NC(=O)C(c2ccc(Cl)cc2)C(C)C)n1 (stereo not given)	0.31
